# According to ChEMBL document CHEMBL1158776, “Pseudoguanolide sesquiterpene lactones from Vernoniopsis caudata and their in vitro antiplasmodial activities” (J Nat Prod, 2005):
# Columns and labels:
# Plasmodium falciparum = experiment: Antiplasmodial activity against chloroquine-resistant Plasmodium falciparum FCB1 in human blood as [G-3H]hypoxanthine uptake; type: functional, organism-based
# KB = experiment: Cytotoxicity against human KB cells after 72 hrs; type: functional, cell-based
structure (smiles),measurement,setting,value
C=C1C(=O)O[C@@H]2C[C@@H](C)[C@@H]3C=CC(=O)[C@@]3(C)[C@@H](OC(=O)C(=C)[C@@H](C)O)[C@H]12,IC50,Plasmodium falciparum,1 µM
same,IC50,KB,0.33 µM
COc1cccc2c1C(=O)c1c(O)c3c(c(O)c1C2=O)C[C@@](O)(C(=O)CO)C[C@@H]3O[C@H]1C[C@H](N)[C@H](O)[C@H](C)O1 [DOXORUBICIN],IC50,KB,0.27 µM
C=C1C(=O)O[C@@H]2C[C@@H](C)[C@@H]3C=CC(=O)[C@@]3(C)[C@@H](OC(=O)/C(=C\C)CO)[C@H]12,IC50,Plasmodium falciparum,0.19 µM
same,IC50,KB,0.93 µM
C=C(C(=O)O[C@H]1[C@H]2[C@@H](C[C@@H](C)[C@@H]3C=CC(=O)[C@]31C)OC(=O)[C@@H]2C)[C@@H](C)O,IC50,Plasmodium falciparum,0.41 µM
same,IC50,KB,0.05 µM
